Holding throughout (format): functional, cell-based
The nature of assay [1]: Cytotoxicity against human LCL cells after 72 hrs by MTT assay. On the technique in general: Formazan colour is commonly taken as a measure of viable cells.
Another assay relates to JIYOYE. The assay is described as follows: Cytotoxicity against human EBV-positive Jijoye cells after 72 hrs by MTT assay.
For another assay, the system named is Jurkat. The assay is described as follows: Cytotoxicity against human Jurkat cells after 72 hrs by MTT assay.

Broadly, the IC50 is the concentration needed to halve the response being measured. Low values mean greater potency, high ones weaker potency. As to `CN1O[C@@H](n2ccc(N)nc2=O)C[C@H]1c1ccccc1` (relative stereo), the IC50 (in assay [1]; with JIYOYE; in the assay on Jurkat) was over 100 µM in each case.

In the case of `CN1O[C@@H](n2ccc(N)nc2=O)C[C@@H]1c1ccccc1` (relative stereo), the IC50 (in assay [1]; in the assay with JIYOYE; with Jurkat) was over 100 µM throughout.

In the case of `Cc1cn([C@@H]2C[C@H](c3ccccc3)N(C)O2)c(=O)[nH]c1=O` (relative stereo), the IC50 in assay [1] stood at 82.5 µM; with JIYOYE it was 60.9 µM; in the assay on Jurkat, 76.6 µM.

On to `Cc1cn([C@@H]2C[C@H](c3ccccc3)N(C(C)(C)C)O2)c(=O)[nH]c1=O` (relative stereo), for which the IC50 in assay [1] is 87.1 µM; with JIYOYE, 68.8 µM; with Jurkat, 72.2 µM.

Consider `CC(C)(C)N1O[C@H](n2cc(F)c(=O)[nH]c2=O)C[C@@H]1c1ccccc1` (relative stereo), for which the IC50 in assay [1] was found to be 67.5 µM; with JIYOYE, 63.1 µM; in the assay on Jurkat, 60.6 µM.

As to `Cc1cn([C@@H]2C[C@H](c3ccco3)N(C(C)(C)C)O2)c(=O)[nH]c1=O` (relative stereo), the IC50 (in assay [1]; in the assay on JIYOYE; in the assay with Jurkat) was over 100 µM each time.

Regarding `Cc1cn([C@@H]2C[C@H](c3ccccc3Cl)N(C)O2)c(=O)[nH]c1=O` (relative stereo), the half-inhibitory concentration (IC50) was found to be 52.6 µM in assay [1], 28.5 µM in the assay on JIYOYE and 8.8 µM in the assay on Jurkat.

Take `Cc1cn([C@@H]2C[C@H](c3ccccc3)N(Cc3ccccc3)O2)c(=O)[nH]c1=O` (relative stereo): the results for the IC50 (in assay [1]; in the assay with JIYOYE; in the assay on Jurkat) were 55.2 µM, 36.9 µM and 19.3 µM, respectively.

These data come from ChEMBL document CHEMBL1250537, “Synthesis and biological evaluation of diastereoisomerically pure N,O-nucleosides” (Bioorg Med Chem, 2010).
